Laboratory results: patent US20120108501A1, “Protease Inhibitors” (priority 2009, published 2012)

What was measured:
[1] = Pharmacokinetics of PEGylated protease inhibitor prodrugs in rats; format: in vivo, male Sprague-Dawley rats; set-up: AUCall / AUC: concentration or dose not given beside the values; conditions: prodrug in plasma; for AUCall / Cmax: mean ± SD
Description: Pharmacokinetic analysis of protease inhibitors described herein was conducted. To evaluate the pharmacokinetics of PEGylated protease inhibitor conjugates with releasable lipophilic attachments, test compounds were administered to male Sprague-Dawley rats.
At various times following test article administration, serial blood samples were collected from indwelling jugular vein catheters and transferred to micro-tubes containing 7.5 μL of 20% w/v K2EDTA as an anticoagulant. Following processing of the blood samples to plasma (10 minutes at 10000 rpm, Centrifuge Model: Kubota 3500), plasma concentrations of the test article or corresponding PEGylated molecule released from the test article was measured using LC-MS/MS methods. Pharmacokinetic parameters were estimated using noncompartmental methods.
Table 3 presents a summary of pharmacokinetic parameters of PEGylated protease inhibitor prodrugs, wherein Cmax is the maximum (peak) concentration, AUCall represents the area under the concentration-time curve from zero to time of last concentration value, T½ is half life, and MRTlast is the mean residence time to last observable concentration

[2] = Pharmacokinetics of released PEGylated protease inhibitor following P.O. administration of prodrugs in rats; format: in vivo, male Sprague-Dawley rats; set-up: AUCall Mean: concentration or dose not given beside the values; C24 Mean: unit not given here; conditions: rats (n = 4-5); for C24 Mean: concentration at 24 hours
Summary of the method: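 Prodrugs given orally to male Sprague-Dawley rats, with serial blood via jugular catheter into K2EDTA. Plasma levels of test article or released PEGylated inhibitor measured by LC-MS/MS. PK parameters from noncompartmental analysis.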

[3] = mPEG6-atazanavir in plasma after PO administration of mPEG6-ATV or of the listed prodrug
[4] = mPEG3-atazanavir in plasma after PO administration of mPEG3-ATV or of the listed prodrug
[5] = mPEG5-atazanavir in plasma after PO administration of mPEG5-ATV or of the listed prodrug

| MRTlast [1] | AUCall [1] | Cmax [1] | AUCall Mean [2, 3] | Cmax Mean [2, 3] | MRT last Mean [2, 3] | Tmax Median [2, 3] | t½(z) [1] | Cmin(24 hr) [1] | AUCall Mean [2, 4] | Cmax Mean [2, 4] | MRT last Mean [2, 4] | Tmax* Median [2, 4] | AUCall Mean [2, 5] | Cmax Mean [2, 5] | MRT last Mean [2, 5] | Tmax Median [2, 5] | C24 Mean [2, 5] | Compound | C24 Mean [2, 4] |
| --- | --- | --- | --- | --- | --- | --- | --- | --- | --- | --- | --- | --- | --- | --- | --- | --- | --- | --- | --- |
| 0.948 ± 0.0741 h | 6.41 ± 9.53 ng·h/mL | 8.21 ± 12.1 ng/mL | 351 ng·h/mL | 12.5 ng/mL | 22.1 h | 1.00 h |  |  |  |  |  |  |  |  |  |  |  | COCCOCCOCCOCCOCCOCCOC(=O)NC(C(=O)NC(Cc1ccccc1)C(CN(Cc1ccc(-c2ccccn2)cc1)NC(=O)C(NC(=O)OC)C(C)(C)C)OC(=O)COCCOC(=O)C(N)Cc1ccccc1)C(C)(C)C.Cl (centres unmarked) [mPEG6-Atazanavir-CME-phenylalanine HCl] |  |
| 5.12 ± 1.74 h | 1140 ± 312 ng·h/mL | 222 ± 73 ng/mL | 55.8 ng·h/mL | 11.3 ng/mL | 3.11 h | 1.50 h | 11.2 ± 7.72 h | 3.47 ± 2.81 ng/mL |  |  |  |  |  |  |  |  |  | COCCOCCOCCOCCOCCOCCOC(=O)NC(C(=O)NC(Cc1ccccc1)C(CN(Cc1ccc(-c2ccccn2)cc1)NC(=O)C(NC(=O)OC)C(C)(C)C)OCOC)C(C)(C)C (centres unmarked) [mPEG6-Atazanavir-methyl methyl ether, mPEG6-Atazanavir Methyl Methyl Ether] |  |
| 1.72 ± 0.237 h | 107 ± 62.4 ng·h/mL | 55.5 ± 41.6 ng/mL | 148 ng·h/mL | 9.49 ng/mL | 10.2 h | 0.500 h | 2.02 ± 1.07 h |  |  |  |  |  |  |  |  |  |  | COCCOCCOCCOCCOCCOCCOC(=O)NC(C(=O)NC(Cc1ccccc1)C(CN(Cc1ccc(-c2ccccn2)cc1)NC(=O)C(NC(=O)OC)C(C)(C)C)OC(=O)C(N)CC(C)C)C(C)(C)C.Cl [mPEG6-Atazanavir-L-Leucine] |  |
| 2.6 ± 0.514 h | 2250 ± 389 ng·h/mL | 740 ± 253 ng/mL |  |  |  |  | 7.46 ± 4.14 h | 2.19 ± 0.700 ng/mL |  |  |  |  | 93.2 ng·h/mL | 16.7 ng/mL | 8.51 h | 2.00 h | 2.76 | CCOC(=O)O[C@@H](CN(Cc1ccc(-c2ccccn2)cc1)NC(=O)[C@@H](NC(=O)OC)C(C)(C)C)[C@H](Cc1ccccc1)NC(=O)[C@@H](NC(=O)OCCOCCOCCOCCOCCOC)C(C)(C)C.Cl [mPEG5-Atazanavir - Ethyl Carbonate HCl, mPEG5-Atazanavir Ethyl Carbonate] |  |
| 3.93 ± 1.41 h | 3530 ± 1960 ng·h/mL | 773 ± 481 ng/mL |  |  |  |  | 4.54 ± 1.68 h | 6.61 ± 8.39 ng/mL |  |  |  |  | 137 ng·h/mL | 23.3 ng/mL | 4.76 h | 2.00 h |  | COCCOCCOCCOCCOCCOC(=O)NC(C(=O)NC(Cc1ccccc1)C(CN(Cc1ccc(-c2ccccn2)cc1)NC(=O)C(NC(=O)OC)C(C)(C)C)OCOC)C(C)(C)C (centres unmarked) [mPEG5-Atazanavir-methyl methyl ether, mPEG5-Atazanavir Methyl Methyl Ether] |  |
| 2.24 ± 2.58 h | 2.56 ± 2.89 ng·h/mL | 0.851 ± 0.730 ng/mL | 287 ng·h/mL | 8.65 ng/mL | 21.8 h | 1.50 h |  |  |  |  |  |  |  |  |  |  |  | COCCOCCOCCOCCOCCOCCOC(=O)NC(C(=O)NC(Cc1ccccc1)C(CN(Cc1ccc(-c2ccccn2)cc1)NC(=O)C(NC(=O)OC)C(C)(C)C)OC(=O)COCCOC(=O)C(N)CC(C)C)C(C)(C)C.Cl (centres unmarked) [mPEG6-Atazanavir-CME-Leucine HCl, mPEG6-Atazanavir-CME-Leucine] |  |

Second part, the compound before the results:

| Compound | MRTlast [1] | AUCall [1] | Cmax [1] | AUCall Mean [2, 3] | Cmax Mean [2, 3] | MRT last Mean [2, 3] | Tmax Median [2, 3] | t½(z) [1] | Cmin(24 hr) [1] | AUCall Mean [2, 4] | Cmax Mean [2, 4] | MRT last Mean [2, 4] | Tmax* Median [2, 4] | AUCall Mean [2, 5] | Cmax Mean [2, 5] | MRT last Mean [2, 5] | Tmax Median [2, 5] | C24 Mean [2, 5] | C24 Mean [2, 4] |
| --- | --- | --- | --- | --- | --- | --- | --- | --- | --- | --- | --- | --- | --- | --- | --- | --- | --- | --- | --- |
| CCOCO[C@@H](CN(Cc1ccc(-c2ccccn2)cc1)NC(=O)[C@@H](NC(=O)OC)C(C)(C)C)[C@H](Cc1ccccc1)NC(=O)[C@@H](NC(=O)OCCOCCOCCOC)C(C)(C)C [mPEG3-Atazanavir-methyl ethyl ether, mPEG3-Atazanavir Methyl Ethyl Ether] | 2.44 ± 0.920 h | 6590 ± 2150 ng·h/mL | 1600 ± 442 ng/mL |  |  |  |  | 9.41 ± 3.35 h | 0.797 ± 0.260 ng/mL | 822 ng·h/mL | 190 ng/mL | 3.29 h | 0.750 h |  |  |  |  |  | 1.20 |
| COCCOCCOCCOCCOCCOC(=O)N[C@H](C(=O)N[C@@H](Cc1ccccc1)[C@H](CN(Cc1ccc(-c2ccccn2)cc1)NC(=O)[C@@H](NC(=O)OC)C(C)(C)C)OC(=O)[C@H](Cc1ccccc1)NC(=O)[C@@H](N)CC(C)C)C(C)(C)C.Cl [Leu-Phe-mPEG5-Atazanavir HCl, Leu-Phe-mPEG5-Atazanavir Hydrochloride] | 7.57 ± 7.76 h | 53.8 ± 34.1 ng·h/mL | 16.5 ± 14.9 ng/mL |  |  |  |  | 0.825 h | 1.16 ± 2.31 ng/mL |  |  |  |  | 147 ng·h/mL | 25.6 ng/mL | 9.33 h | 1.50 h |  |  |
| COCCOCCOCCOC(=O)NC(C(=O)NC(Cc1ccccc1)C(CN(Cc1ccc(-c2ccccn2)cc1)NC(=O)C(NC(=O)OC)C(C)(C)C)OC(=O)CNC(=O)C(N)CC(C)C)C(C)(C)C.Cl (stereo not drawn) [Leu-Gly-mPEG3-Atazanavir, Leu-Gly-mPEG3-Atazanavir Hydrochloride] | 0.597 ± 0.376 h | 0.955 ± 1.02 ng·h/mL | 0.833 ± 0.676 ng/mL |  |  |  |  |  |  | 44.9 ng·h/mL | 2.10 ng/mL | 15.9 h | 4.00 h |  |  |  |  |  |  |
| COCCOCCOCCOCCOCCOC(=O)NC(C(=O)NC(Cc1ccccc1)C(CN(Cc1ccc(-c2ccccn2)cc1)NC(=O)C(NC(=O)OC)C(C)(C)C)OC(=O)COCCOC(=O)C(Cc1ccccc1)NC(=O)C(N)Cc1ccccc1)C(C)(C)C.Cl (stereo not drawn) [CME Phe-Phe-mPEG5-Atazanavir HCl, mPEG5-atazanavir-ethoxy-CME-Phe-Phe] | 1.26 h | 1.22 ng·h/mL | 2.36 ng/mL |  |  |  |  |  | BLQ |  |  |  |  | 299 ng·h/mL |  | 23.9 h | 24.0 h |  |  |
| COCCOCCOCCOC(=O)N[C@H](C(=O)N[C@@H](Cc1ccccc1)[C@H](CN(Cc1ccc(-c2ccccn2)cc1)NC(=O)[C@@H](NC(=O)OC)C(C)(C)C)OCOC)C(C)(C)C [mPEG3-Atazanavir-methyl methyl ether, mPEG3-Atazanavir Methyl Methyl Ether] | 3.00 ± 0.350 h | 7740 ± 935 ng·h/mL | 1680 ± 150 ng/mL |  |  |  |  | 4.03 ± 1.33 h | 6.52 ± 3.57 ng/mL | 110 ng·h/mL | 23.0 ng/mL | 3.26 h | 1.00 h |  |  |  |  |  |  |
| CCOC(CC)OC(CN(Cc1ccc(-c2ccccn2)cc1)NC(=O)C(NC(=O)OC)C(C)(C)C)C(Cc1ccccc1)NC(=O)C(NC(=O)OCCOCCOCCOC)C(C)(C)C (mixture of isomers) [1-ethoxypropoxy-mPEG3-Atazanivir, atazanavir-1-ethoxypropoxy-mPEG3] | 2.29 ± 0.280 h | 8480 ± 1700 ng·h/mL | 2060 ± 260 ng/mL |  |  |  |  | 1.39 ± 0.210 h | BLQ | 849 ng·h/mL | 153 ng/mL | 3.83 h | 1.00 h |  |  |  |  |  |  |
